Data reported in patent US12678509B2, “Inhibitor of apoptosis (IAP) protein antagonists” (Sanford Burnham Prebys Medical Discovery Institute, priority 2019, dated 2026).
Like-named read-outs stand apart in the source and are kept apart here.

Key:
MOLM 13 = test: Cell viability (CellTiter-Glo), 6-day compound treatment; format: cell-based, Human; details: for IC50: Homo sapiens, MOLM-13, 144 h
Method in brief: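 Cells plated at 1700 per well, left overnight at 37° C./5% CO2, then exposed to 10-fold compound dilutions for 6 days […]. Viability by CellTiter-Glo luminescence; IC50 from nonlinear regression fit.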

BIR3 domain of XIAP = BIR3 domain of XIAP (Homo sapiens, UniProt P98170); test: Fluorescence polarization assay; format: binding; details: SMAC-FITC probe, Ki calculated from IC50
Method in brief: (§1)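 Competitive FP with 50 nM SMAC-FITC probe in 100 mM KH2PO4 pH 7.5, 50 μM ZnSO4, 1 mM TCEP; cIAP1 and XIAP at 800 nM, cIAP2 and ML-IAP at 1.5 μM. Compounds 30 μM to 1.5 nM in 3-fold steps; ex 485/em 535 nm. IC50 by nonlinear fit, converted to Ki via Nikolovska-Coleska equation.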

BIR3 domain of cIAP1 = BIR3 domain of cIAP1 (Homo sapiens, UniProt Q13490); test: Fluorescence polarization assay; format: binding; details: SMAC-FITC probe, Ki calculated from IC50
Method in brief: as §1

BIR3 domain of cIAP2 = BIR3 domain of cIAP2 (Homo sapiens, UniProt Q13489); test: Fluorescence polarization assay; format: binding; details: SMAC-FITC probe, Ki calculated from IC50
Method in brief: as §1

ML-IAP = molecular target: T1, ML-IAP (Homo sapiens, UniProt Q96CA5); test: Fluorescence polarization assay; format: binding; details: SMAC-FITC probe, Ki calculated from IC50
T1 sequence (Q96CA5 1-298): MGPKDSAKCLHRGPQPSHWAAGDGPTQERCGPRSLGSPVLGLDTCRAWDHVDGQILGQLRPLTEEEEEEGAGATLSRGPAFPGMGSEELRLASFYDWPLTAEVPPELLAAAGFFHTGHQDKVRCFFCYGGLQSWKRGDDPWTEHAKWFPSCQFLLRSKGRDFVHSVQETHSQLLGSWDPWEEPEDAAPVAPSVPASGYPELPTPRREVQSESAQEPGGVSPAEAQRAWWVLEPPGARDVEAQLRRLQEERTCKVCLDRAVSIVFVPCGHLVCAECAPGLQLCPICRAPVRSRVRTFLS
Method in brief: as §1

[1] = system: latently infected cell line Jurkat 2D10; test: HIV Jurkat 2D10 cells GFP+ assay (reversal of HIV latency); format: cell-based
Method in brief: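 Jurkat 2D10 cells exposed to graded doses of test compounds or IAP antagonists (BV-6, SM-164, Birinapant, LCL-161, GDC-0152, AT-406) for 48 hours. GFP expression quantified by flow cytometry. Induction expressed relative to baseline GFP in untreated cells.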

resting CD4+ T cells = test: T cell activation (CD69 and CD25 expression, flow cytometry); format: cell-based; details: resting CD4+ T cells of healthy human donors (FIG. 2)
Description: Compound 18a was also tested for its impact on T cell activation and cytokine release. Peripheral blood mononuclear cells (PBMC) were isolated by Ficoll density gradient centrifugation (Histopaque, Sigma Aldrich) from buffy coats of three healthy human donors (San Diego Blood Bank). Resting CD4^+ T cells were subsequently isolated by negative selection using magnetic beads (Miltenyi Biotec). Cells were treated with compound 18a, or 50 ng/ml Phorbol myristate acetate (PMA) and 1 μM lonomycin, or Dynabeads Human T-Activator CD3/CD28 (ThermoFisher Scientific) at a bead-to-cell ratio of 1:1, or left untreated. Expression of the early and late activation markers CD69 and CD25 on CD4+ T cells was assessed by flow cytometry using a Phycoerythrin-labeled anti-CD69 antibody (BioLegend; Cat #310906) and an Allophycocyanin-labeled anti-CD25 antibody (BioLegend; Cat #302610). Cytokine expression levels in cultures of PBMC or resting CD4+ T cells were analyzed using the LEGENDplex Human Inflammation Panel 13-plex (BioLegend).

[2] = system: cIAP1 degradation and p100 cleavage in JLat 10.6 cells; test: cIAP1 degradation and p100 cleavage (western blot) with GFP expression; format: cell-based; details: 24 hours, different concentrations (FIG. 4)
Description: JLat 10.6 cells were treated with different concentrations of compound 18a for 24 hours. GFP expression indicating latency reversal was measured by flow cytometry. cIAP1 degradation and p100 cleavage were assessed by western blot using the antibodies AF8181 (R&D Systems) and #4882 (Cell Signaling Technology), respectively.

[3] = system: latently infected cell line Jurkat 2D10; test: Combination with other LRA, Bliss Independence model, GFP expression; format: cell-based; details: Jurkat 2D10, 48 hours, with JQ1, I-BET 151, Bryostatin, Ingenol-3-angelate
Description: Compound 18a was also tested in combination with other LRA reagents for synergistic activation of the latently infected cell line Jurkat 2D10. Jurkat 2D10 cells were treated with combinations of compound 18a and BET inhibitors (JQ1, I-BET 151) or PKC agonists (Bryostatin, Ingenol-3-angelate) for 48 hours. Reversal of HW latency was evaluated by analyzing GFP expression using flow cytometry. Synergy was assessed with the Bliss Independence model where the observed effect of a combination of compounds f12 is compared to the expected effect E(f12) that is calculated based on the observed effects of the individual compounds f1 and f2 using the formula E(f12)=f1+J2−(f1*f2). The difference between the observed effect of the combined compounds (f12) and the expected combined effect of the two compounds E(f12) is given as the excess over Bliss score (EOB). An EOB value greater than 0 indicates synergy between the compounds.

Chain of BIR3 domain of XIAP (P98170 241-356 limits assumed): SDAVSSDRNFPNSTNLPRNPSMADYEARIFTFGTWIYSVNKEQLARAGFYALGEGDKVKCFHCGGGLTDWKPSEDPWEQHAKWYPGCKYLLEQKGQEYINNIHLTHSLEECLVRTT
Chain of BIR3 domain of cIAP2 (Q13489 238-349 limits assumed): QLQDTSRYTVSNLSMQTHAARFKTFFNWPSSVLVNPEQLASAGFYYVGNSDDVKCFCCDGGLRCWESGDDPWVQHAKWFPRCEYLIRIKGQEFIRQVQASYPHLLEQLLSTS
Chain of BIR3 domain of cIAP1 (Q13490 253-363 limits assumed): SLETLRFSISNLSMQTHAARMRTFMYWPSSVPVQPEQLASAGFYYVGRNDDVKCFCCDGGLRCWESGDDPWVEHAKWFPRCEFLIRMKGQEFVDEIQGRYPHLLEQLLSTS

For CN[C@@H](C)C(=O)N[C@H]1CCS[C@H]2CC(C)(C)[C@@H](C(=O)N[C@H]3c4ccccc4C[C@H]3OCC#CC#CCO[C@@H]3Cc4ccccc4[C@@H]3NC(=O)[C@H]3N4C(=O)[C@@H](NC(=O)[C@H](C)NC)CCS[C@H]4CC3(C)C)N2C1=O [Compound 18a, (2S)-1-{[(4S,7S,9aS)-74{(1S,2R)-2-[(6-{[(1S,2R)-1-({[(4S,7S,9aS)-8,8-Dimethyl-4-{[(2S)-2-(methylammonio)propanoyl]amino}-5-oxooctahydropyrrolo[2,1-b][1,3]thiazepin-7-yl]carbonyl}amino)-2,3-dihydro-1H-inden-2-yl]oxy}hexa-2,4-diyn-1-yl)oxy]-2,3-dihydro-1H-inden-1-yl}carbamoyl)-8,8-dimethyl-5-oxooctahydropyrrolo[2,1-b][1,3]thiazepinyl]amino}-N-methyl-1-oxopropan-2-ammonium dichloride], the IC50 (MOLM 13; read-out: IC50 6 d) was 10 to 100 nM, the IC50 (MOLM 13; read-out: MOLM 13 Viability 6 d IC50) was 10 to 100 nM and the “Cell viability at max. concentration” value (MOLM 13; MOLM 13, 6 d) was “I (I<10%)”. For the same compound, the Ki (BIR3 domain of XIAP) was ≤ 50 nM, the Ki (BIR3 domain of cIAP1) was ≤ 50 nM and the Ki (BIR3 domain of cIAP2) was 50 to 100 nM. For the same compound, the Ki (ML-IAP) was 50 to 100 nM, the EC50 ([1]; Homo sapiens, Jurkat, 48 h, read-out: Jurkat 2D10 GFP+ EC50) was 1 to 10 nM and the “efficacy in activating the latently infected cell line” value ([1]; Jurkat 2D10, 48 hours, compared with BV-6, SM-164, Birinapant, LCL-161, GDC-0152, AT-406 (FIG. 1)) was “higher efficacy in activating the latently infected cell line than many known compounds”. The “activation of resting CD4+ T cells (CD69, CD25)” value (resting CD4+ T cells) was “did not induce activation of resting CD4+ T cells”, the “cIAP1 degradation and p100 cleavage” value [2] was “correlated with HW latency reversal” and the “synergy with LRA compounds in reversal of HIV latency” value [3] was “synergizes with the tested LRA compounds to reverse HW latency”.
